Converted amounts (≈) assume the structure as drawn.

These results are taken from patent US12516049B2, “Sulfonylurea ring substituted monocyclic β-lactam antibiotics” (priority 2019, dated 2026).

Assay [1] relates to Enterobacter cloacae ATCC BAA-1143 (AmpC). The assay is described as follows: MIC, micro-liquid dilution (CLSI). It is filed as cell-based. The conditions noted are these: ATCCBAA1143, E. cloacae ATCC BAA-1143, Class C (AmpC), 20-24 h, 37° C. The procedure:
(§1) Three strains of Klebsiella pneumonia, ATCC BAA-205 (TEM-1/SHV-1/SHV-12), ATCC BAA-1705 (KPC-2), ATCC BAA-2470 (NDM-1), Enterobacter cloacae ATCC BAA-1143 (AmpC), two strains of Escherichia coli ATCC BAA-2523 (OXA-48), ATCC 25922 were used to determine the minimum inhibitory concentration (MIC) of each of the compounds by micro-liquid dilution method according to the Institute of Clinical and Laboratory Standard (CLSI) requirements. […]. The plate was placed upside down at 37° C. and the MIC value was read after 20-24 h of incubation, and the lowest drug concentration that inhibited the growth of bacteria was set as MIC. Colony-Forming Units (CFU) refer to the total number of bacterial colonies per unit volume.

For assay [2], the system named is Escherichia coli ATCC 25922. Briefly: MIC, micro-liquid dilution (CLSI). The conditions noted are these: ATCC25922, E. coli ATCC 25922, 20-24 h, 37° C. The assay is classed as cell-based. The method, then: as §1
The test system of assay [3] is Escherichia coli ATCC BAA-2523 (OXA-48). The assay is described as follows: MIC, micro-liquid dilution (CLSI). The conditions noted are these: ATCCBAA2523. It is filed as cell-based. The method, then:
as §1

Assay [4] has as its system Klebsiella pneumonia ATCC BAA-1705 (KPC-2). Briefly: MIC, micro-liquid dilution (CLSI). It is filed as cell-based. The conditions noted are these: Klebsiella pneumoniae, ATCCBAA1705; K. pneumonia ATCC BAA-1705, Class A (KPC-2); 20-24 h, 37° C. The procedure: as §1
Assay [5] relates to Klebsiella pneumonia ATCC BAA-205 (TEM-1/SHV-1/SHV-12). The assay is described as follows: MIC, micro-liquid dilution (CLSI). The settings on record: Klebsiella pneumoniae, ATCCBAA205; K. pneumonia ATCC BAA-205, Class A (TEM-1/SHV-1/SHV-12); 20-24 h, 37° C. It is filed as cell-based. The method, then: as §1
Assay [6] has as its system Klebsiella pneumonia ATCC BAA-2470 (NDM-1). The assay is described as follows: MIC, micro-liquid dilution (CLSI). The settings on record: Klebsiella pneumoniae, ATCCBAA2470; K. pneumonia ATCC BAA-2470, Class B (NDM-1); 20-24 h, 37° C. The assay is classed as cell-based. The procedure:
as §1

The test system of assay [7] is K.p CRE11. Briefly: MIC, two-fold agar dilution, clinical isolate. It is filed as cell-based. The method, then:
(§2) The minimum inhibitory concentration (MIC) of the compound and combination with β-lactamase (MBLs) inhibitors against clinically isolated carbapenem-resistant enterobacteriaceae was determined by the two-fold agar dilution method to determine the activity of the compound to be tested against strains producing MBLs. Antibiotics and enzyme inhibitors were weighed separately and dissolved in sterile ultrapure water or dimethyl sulfoxide to prepare mother liquor, MHA medium was prepared, pH was adjusted to 7.2-7.4, and it was sterilized at 121° C. for 15 minutes and placed in a 55° C. water bath for heat preservation. The mother liquor was diluted to the concentration to be tested by double dilution method, an inoculum liquid was prepared by direct bacterial suspension method, 1 mL of the prepared bacteria solution was withdrawn and putted into the inoculation tube, and a positioning needle and an inoculation needle were installed. A bacterial multi-point inoculator was started for inoculation. After the bacterial solution was absorbed by the agar, the plate was placed upside down in an incubator at 37° C. for 16-20 hours, and the results were observed. The average of three tests was taken.
For orientation: Agar dilution tests growth on a series of plates holding different concentrations.

Assay [8] has as its system E.coli 115101. The assay is described as follows: MIC, two-fold agar dilution, clinical isolate. The assay is classed as cell-based. The conditions noted are these: Escherichia coli; E.coli 115101; single drug; average of three tests; read-out: MIC. The method, then: as §2, with “Antibiotics and enzyme inhibitors were weighed separately and dissolved in sterile ultrapure water or dimethyl sulfoxide to prepare mother liquor, MHA medium was prepared, pH was adjusted to 7.2-7.4, and it was sterilized at 121° C. for 15 minutes and placed in a 55° C. water bath for heat preservation.” left out

For assay [9], the system named is E.coli 115105. Briefly: MIC, two-fold agar dilution, clinical isolate. The conditions noted are these: Escherichia coli, single drug, average of three tests. The assay is classed as cell-based. The procedure:
as §2, with “Antibiotics and enzyme inhibitors were weighed separately and dissolved in sterile ultrapure water or dimethyl sulfoxide to prepare mother liquor, MHA medium was prepared, pH was adjusted to 7.2-7.4, and it was sterilized at 121° C. for 15 minutes and placed in a 55° C. water bath for heat preservation.” left out

The test system of assay [10] is K.p HX30. Briefly: MIC, two-fold agar dilution, clinical isolate. The conditions noted are these: K.p HX30; single drug; average of three tests; read-out: MIC. The assay is classed as cell-based. The procedure: as §2, with “Antibiotics and enzyme inhibitors were weighed separately and dissolved in sterile ultrapure water or dimethyl sulfoxide to prepare mother liquor, MHA medium was prepared, pH was adjusted to 7.2-7.4, and it was sterilized at 121° C. for 15 minutes and placed in a 55° C. water bath for heat preservation.” left out

For assay [11], the system named is clinically isolated carbapenem-resistant enterobacteriaceae. It is filed as cell-based. The conditions noted are these: single drug; panel of 26 strains of Table 2. The method, then: as §2, with “Antibiotics and enzyme inhibitors were weighed separately and dissolved in sterile ultrapure water or dimethyl sulfoxide to prepare mother liquor, MHA medium was prepared, pH was adjusted to 7.2-7.4, and it was sterilized at 121° C. for 15 minutes and placed in a 55° C. water bath for heat preservation.” left out

Assay [12] deals with Klebsiella pneumoniae ATCC-BAA 2470. The assay is described as follows: Mouse thigh muscle infection model, Klebsiella pneumoniae ATCC-BAA 2470. It is filed as in vivo. The settings on record: immunodeficient female CD-1 mice; Klebsiella pneumoniae ATCC-BAA 2470 9.5E+06 CFU/mouse; 200 mg/kg every 2 h from 2 h; end point 24 h. The method, then: 15 female CD-1 mice were divided into 5 cages, 3 mice per cage; the day of infection was counted as day 0.
Immunosuppressant cyclophosphamide 150 mg/kg were injected intraperitoneally on Day-4, and immunosuppressant cyclophosphamide 100 mg/kg was injected intraperitoneally again on the first day to obtain immunodeficient mice.
The strain Klebsiella pneumoniae ATCC-BAA 2470 was recovered on an MHA plate on the first day. The recovered colonies were picked and dissolved in sterile saline to prepare bacterial solution with a concentration of 9.5E+07 CFU/mL for use in mouse thigh muscle infection. The infection starting time was counted as 0 h, and 100 μL of bacterial solution is injected into the thigh muscle of each mouse at 0 h, that is, the inoculation amount is 9.5E+06 CFU/mouse. 2 h after infection, the drugs were administered according to the experimental scheme. The specific experimental scheme is as follows (see Table 5): […]
(2) 2 h after infection: Mice in the second to third cages were administered separately at a volume of 10 mL/kg according to the mouse body weight. […] The amount of bacteria loaded in the thigh muscle tissue of the mouse was counted, and the experimental results were shown in Table 6.

On to `NC[C@@H]1CN(C[C@@H]2[C@H](NC(=O)/C(=N\OC3(C(=O)O)CC3)c3csc(N)n3)C(=O)N2S(=O)(=O)O)S(=O)(=O)N1` [Compound 4], for which the MIC (usually the lowest concentration found to suppress growth) in [1] amounted to 0.5 µg/mL (≈ 0.858 µM); in [2], 0.25 µg/mL (≈ 0.429 µM); in assay [3] it was 0.125 µg/mL (≈ 0.215 µM); in assay [4] it was 1 µg/mL (≈ 1.72 µM); in assay [5], 0.5 µg/mL (≈ 0.858 µM); in assay [6], 0.25 µg/mL (≈ 0.429 µM). Besides, the MIC is 0.125 µg/mL in assay [7], 0.5 µg/mL in [8], 1 µg/mL in assay [9] and 0.5 µg/mL in assay [10]. Besides, in [11], the MIC50 (commonly the lowest concentration that inhibits either 50% of growth or 50% of the strains tested, depending on the study) came to 0.125 µg/mL. In addition, in assay [11], the MIC90 (as a rule, an inhibitory concentration at the 90% level, which refers to growth in some studies and to a panel of isolates in others) came out at 1 µg/mL. Moreover, the “Average CFU of the mouse (amount of bacteria loaded in thigh muscle tissue)” value in assay [12] was 3.93E+06 CFU/mouse.
